PubChem BioAssay (NCI)
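In this assay, cells in 96-well plates receive the compound at five concentrations for 48 hours. Endpoints are linearly interpolated between the surrounding concentrations. The concentration for full growth arrest is given as TGI.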

Tests used:
Assay in all cases: NCI anticancer screen, dose series, 48 h
RXF 393 renal = test system: RXF 393 renal
OVCAR-4 ovarian = test system: OVCAR-4 ovarian
COLO 205 colon = test system: COLO 205 colon
U251 CNS = test system: U251 CNS
MCF7 breast = test system: MCF7 breast
MOLT-4 leukemia = test system: MOLT-4 leukemia
BT-549 breast = test system: BT-549 breast
HOP-92 NSCLC = test system: HOP-92 NSCLC
IGROV1 ovarian = test system: IGROV1 ovarian
OVCAR-8 ovarian = test system: OVCAR-8 ovarian
HCT-116 colon = test system: HCT-116 colon
SK-MEL-5 melanoma = test system: SK-MEL-5 melanoma
OVCAR-3 ovarian = test system: OVCAR-3 ovarian
OVCAR-5 ovarian = test system: OVCAR-5 ovarian
UACC-257 melanoma = test system: UACC-257 melanoma
SW-620 colon = test system: SW-620 colon
CCRF-CEM leukemia = test system: CCRF-CEM leukemia
SR leukemia = test system: SR leukemia
SK-MEL-28 melanoma = test system: SK-MEL-28 melanoma
ACHN renal = test system: ACHN renal
CAKI-1 renal = test system: CAKI-1 renal
HT29 colon = test system: HT29 colon
MDA-N = test system: MDA-N
NCI-H460 lung = test system: NCI-H460 lung
SF-539 CNS = test system: SF-539 CNS
MALME-3M melanoma = test system: MALME-3M melanoma
K-562 leukemia = test system: K-562 leukemia
HCT-15 colon = test system: HCT-15 colon
A549 NSCLC = test system: A549 NSCLC
SF-295 CNS = test system: SF-295 CNS
NCI-H226 lung = test system: NCI-H226 lung
SF-268 CNS = test system: SF-268 CNS
LOX IMVI melanoma = test system: LOX IMVI melanoma
SK-MEL-2 melanoma = test system: SK-MEL-2 melanoma
RPMI-8226 leukemia = test system: RPMI-8226 leukemia
SNB-75 CNS = test system: SNB-75 CNS
MDA-MB-231 breast = test system: MDA-MB-231 breast
KM12 colon = test system: KM12 colon
TK-10 renal = test system: TK-10 renal
A498 renal = test system: A498 renal
UACC-62 melanoma = test system: UACC-62 melanoma
DU-145 prostate = test system: DU-145 prostate
NCI/ADR-RES ovarian = test system: NCI/ADR-RES ovarian
NCI-H23 lung = test system: NCI-H23 lung
PC-3 prostate = test system: PC-3 prostate
EKVX NSCLC = test system: EKVX NSCLC
T-47D breast = test system: T-47D breast
SK-OV-3 ovarian = test system: SK-OV-3 ovarian
786-0 renal = test system: 786-0 renal
HCC-2998 colon = test system: HCC-2998 colon
SN12C renal = test system: SN12C renal
M14 melanoma = test system: M14 melanoma
HOP-62 NSCLC = test system: HOP-62 NSCLC
MDA-MB-435 = test system: MDA-MB-435
UO-31 renal = test system: UO-31 renal
SNB-19 CNS = test system: SNB-19 CNS
HS 578T breast = test system: HS 578T breast
NCI-H522 lung = test system: NCI-H522 lung
HL-60(TB) leukemia = test system: HL-60(TB) leukemia

## O=C1C2=Cc3ccccc3OC2(O)Oc2cc3ccccc3cc21 (stereo unspecified)
RXF 393 renal
  TGI: > 100 µM
OVCAR-4 ovarian
  TGI: > 100 µM
COLO 205 colon
  TGI: > 100 µM
U251 CNS
  TGI: > 100 µM
MCF7 breast
  TGI: > 100 µM
MOLT-4 leukemia
  TGI: > 100 µM
BT-549 breast
  TGI: > 100 µM
HOP-92 NSCLC
  TGI: > 100 µM
IGROV1 ovarian
  TGI: > 100 µM
OVCAR-8 ovarian
  TGI: > 100 µM
HCT-116 colon
  TGI: > 100 µM
SK-MEL-5 melanoma
  TGI: > 100 µM
OVCAR-3 ovarian
  TGI: > 100 µM
OVCAR-5 ovarian
  TGI: > 100 µM
UACC-257 melanoma
  TGI: > 100 µM
SW-620 colon
  TGI: > 100 µM
CCRF-CEM leukemia
  TGI: > 100 µM
SR leukemia
  TGI: > 100 µM
SK-MEL-28 melanoma
  TGI: > 100 µM
ACHN renal
  TGI: > 100 µM
CAKI-1 renal
  TGI: > 100 µM
HT29 colon
  TGI: > 100 µM
MDA-N
  TGI: > 100 µM
NCI-H460 lung
  TGI: > 100 µM
SF-539 CNS
  TGI: 79.2 µM
MALME-3M melanoma
  TGI: > 100 µM
K-562 leukemia
  TGI: > 100 µM
HCT-15 colon
  TGI: > 100 µM
A549 NSCLC
  TGI: > 100 µM
SF-295 CNS
  TGI: > 100 µM
NCI-H226 lung
  TGI: > 100 µM
SF-268 CNS
  TGI: > 100 µM
LOX IMVI melanoma
  TGI: > 100 µM
SK-MEL-2 melanoma
  TGI: > 100 µM
RPMI-8226 leukemia
  TGI: > 100 µM
SNB-75 CNS
  TGI: 73.2 µM
MDA-MB-231 breast
  TGI: > 100 µM
KM12 colon
  TGI: > 100 µM
TK-10 renal
  TGI: > 100 µM
A498 renal
  TGI: > 100 µM
UACC-62 melanoma
  TGI: > 100 µM
DU-145 prostate
  TGI: > 100 µM
NCI/ADR-RES ovarian
  TGI: > 100 µM
NCI-H23 lung
  TGI: > 100 µM
PC-3 prostate
  TGI: > 100 µM
EKVX NSCLC
  TGI: > 100 µM
T-47D breast
  TGI: > 100 µM
SK-OV-3 ovarian
  TGI: > 100 µM
786-0 renal
  TGI: > 100 µM
HCC-2998 colon
  TGI: 74.9 µM
SN12C renal
  TGI: > 100 µM
M14 melanoma
  TGI: > 100 µM
HOP-62 NSCLC
  TGI: > 100 µM
MDA-MB-435
  TGI: > 100 µM

## CC(=O)OCC1OC(N2C(c3ccccc3)=CC(c3cccs3)C(C#N)=C2S)C(OC(C)=O)C(OC(C)=O)C1OC(C)=O (stereo unspecified)
RXF 393 renal
  TGI: > 100 µM
COLO 205 colon
  TGI: > 100 µM
U251 CNS
  TGI: > 100 µM
MCF7 breast
  TGI: > 100 µM
UO-31 renal
  TGI: > 100 µM
MOLT-4 leukemia
  TGI: > 100 µM
SNB-19 CNS
  TGI: > 100 µM
IGROV1 ovarian
  TGI: > 100 µM
HCT-116 colon
  TGI: > 100 µM
OVCAR-3 ovarian
  TGI: > 100 µM
OVCAR-5 ovarian
  TGI: > 100 µM
UACC-257 melanoma
  TGI: > 100 µM
CCRF-CEM leukemia
  TGI: > 100 µM
ACHN renal
  TGI: > 100 µM
CAKI-1 renal
  TGI: > 100 µM
HS 578T breast
  TGI: > 100 µM
MDA-N
  TGI: > 100 µM
NCI-H460 lung
  TGI: > 100 µM
SF-539 CNS
  TGI: > 100 µM
HCT-15 colon
  TGI: > 100 µM
A549 NSCLC
  TGI: > 100 µM
SF-295 CNS
  TGI: > 100 µM
SF-268 CNS
  TGI: > 100 µM
LOX IMVI melanoma
  TGI: > 100 µM
SK-MEL-2 melanoma
  TGI: > 100 µM
SNB-75 CNS
  TGI: > 100 µM
MDA-MB-231 breast
  TGI: > 100 µM
KM12 colon
  TGI: > 100 µM
TK-10 renal
  TGI: > 100 µM
A498 renal
  TGI: 42.9 µM
DU-145 prostate
  TGI: > 100 µM
NCI/ADR-RES ovarian
  TGI: > 100 µM
NCI-H23 lung
  TGI: > 100 µM
PC-3 prostate
  TGI: > 100 µM
T-47D breast
  TGI: > 100 µM
SK-OV-3 ovarian
  TGI: > 100 µM
786-0 renal
  TGI: > 100 µM
HCC-2998 colon
  TGI: > 100 µM
SN12C renal
  TGI: > 100 µM
M14 melanoma
  TGI: > 100 µM

## CC(C)(C)C1=C(Br)C(C(C)(C)C)OP1(=O)O (stereo unspecified)
OVCAR-4 ovarian
  TGI: > 100 µM
COLO 205 colon
  TGI: > 100 µM
U251 CNS
  TGI: > 100 µM
MCF7 breast
  TGI: > 100 µM
UO-31 renal
  TGI: > 100 µM
HOP-92 NSCLC
  TGI: > 100 µM
SNB-19 CNS
  TGI: > 100 µM
IGROV1 ovarian
  TGI: > 100 µM
OVCAR-8 ovarian
  TGI: > 100 µM
HCT-116 colon
  TGI: > 100 µM
SK-MEL-5 melanoma
  TGI: > 100 µM
OVCAR-3 ovarian
  TGI: > 100 µM
OVCAR-5 ovarian
  TGI: > 100 µM
UACC-257 melanoma
  TGI: > 100 µM
NCI-H522 lung
  TGI: > 100 µM
SK-MEL-28 melanoma
  TGI: > 100 µM
ACHN renal
  TGI: > 100 µM
CAKI-1 renal
  TGI: > 100 µM
HS 578T breast
  TGI: > 100 µM
HT29 colon
  TGI: > 100 µM
MDA-N
  TGI: > 100 µM
NCI-H460 lung
  TGI: > 100 µM
SF-539 CNS
  TGI: > 100 µM
MALME-3M melanoma
  TGI: > 100 µM
K-562 leukemia
  TGI: > 100 µM
HCT-15 colon
  TGI: > 100 µM
A549 NSCLC
  TGI: > 100 µM
SF-295 CNS
  TGI: > 100 µM
NCI-H226 lung
  TGI: > 100 µM
SF-268 CNS
  TGI: > 100 µM
LOX IMVI melanoma
  TGI: > 100 µM
SK-MEL-2 melanoma
  TGI: > 100 µM
SNB-75 CNS
  TGI: > 100 µM
KM12 colon
  TGI: > 100 µM
TK-10 renal
  TGI: > 100 µM
A498 renal
  TGI: > 100 µM
UACC-62 melanoma
  TGI: > 100 µM
DU-145 prostate
  TGI: > 100 µM
NCI/ADR-RES ovarian
  TGI: > 100 µM
NCI-H23 lung
  TGI: > 100 µM
PC-3 prostate
  TGI: > 100 µM
EKVX NSCLC
  TGI: > 100 µM
HL-60(TB) leukemia
  TGI: > 100 µM
T-47D breast
  TGI: > 100 µM
SK-OV-3 ovarian
  TGI: > 100 µM
786-0 renal
  TGI: > 100 µM
HCC-2998 colon
  TGI: > 100 µM
SN12C renal
  TGI: > 100 µM
M14 melanoma
  TGI: > 100 µM
HOP-62 NSCLC
  TGI: > 100 µM
MDA-MB-435
  TGI: > 100 µM

## CC1(C)C2CCC1(C)C(N/C(Sc1ccccc1)=C(/C(Cl)=C(Cl)Cl)[N+](=O)[O-])C2 (stereo unspecified)
OVCAR-4 ovarian
  TGI: 29.8 µM
U251 CNS
  TGI: 23.5 µM
MCF7 breast
  TGI: 24 µM
UO-31 renal
  TGI: 26 µM
MOLT-4 leukemia
  TGI: > 100 µM
BT-549 breast
  TGI: 28.8 µM
SNB-19 CNS
  TGI: 43.9 µM
OVCAR-8 ovarian
  TGI: 27.3 µM
HCT-116 colon
  TGI: 28.8 µM
OVCAR-3 ovarian
  TGI: 17.7 µM
OVCAR-5 ovarian
  TGI: 65.5 µM
UACC-257 melanoma
  TGI: 27.4 µM
SW-620 colon
  TGI: 24 µM
SK-MEL-28 melanoma
  TGI: 24.9 µM
ACHN renal
  TGI: 26.3 µM
CAKI-1 renal
  TGI: 28.5 µM
HT29 colon
  TGI: 30.7 µM
MDA-N
  TGI: 27.6 µM
NCI-H460 lung
  TGI: 32.7 µM
SF-539 CNS
  TGI: 26.2 µM
MALME-3M melanoma
  TGI: 28.4 µM
K-562 leukemia
  TGI: > 100 µM
HCT-15 colon
  TGI: 24.1 µM
A549 NSCLC
  TGI: 45.9 µM
SF-295 CNS
  TGI: 27.7 µM
NCI-H226 lung
  TGI: 31.1 µM
SF-268 CNS
  TGI: 24.4 µM
SK-MEL-2 melanoma
  TGI: 25 µM
SNB-75 CNS
  TGI: 30.4 µM
MDA-MB-231 breast
  TGI: 22 µM
KM12 colon
  TGI: 18.8 µM
A498 renal
  TGI: 28.2 µM
UACC-62 melanoma
  TGI: 21.3 µM
DU-145 prostate
  TGI: 61.1 µM
NCI/ADR-RES ovarian
  TGI: 30.5 µM
NCI-H23 lung
  TGI: 27.6 µM
PC-3 prostate
  TGI: 21.1 µM
EKVX NSCLC
  TGI: 57.8 µM
T-47D breast
  TGI: 31.2 µM
SK-OV-3 ovarian
  TGI: 34.7 µM
786-0 renal
  TGI: 26.9 µM
HCC-2998 colon
  TGI: 28.5 µM
SN12C renal
  TGI: 31 µM
M14 melanoma
  TGI: 25.9 µM
HOP-62 NSCLC
  TGI: 62.9 µM
MDA-MB-435
  TGI: 25.9 µM
